Common to all, as to format: in vivo
Test [1] has as its system Setaria faberi (SETFA). Description: Pre-emergence herbicidal glasshouse test, Setaria faberi. As to conditions: rate 250 g/ha, evaluated after 13 days, scale 100 = total damage to plant, 0 = no damage; for pest or weed control at 250 g/ha: Setaria faberi, 312 h. The procedure: (§1) Seeds of a variety of test species were sown in standard soil in pots. After cultivation for one day (pre-emergence) or after 8 days cultivation (post-emergence) under controlled conditions in a glasshouse (at 24/16° C., day/night; 14 hours light; 65% humidity), the plants were sprayed with an aqueous spray solution derived from the formulation of the technical active ingredient in acetone/water (50:50) solution containing 0.5% Tween 20 (polyoxyethelyene sorbitan monolaurate, CAS RN 9005-64-5). The test plants were then grown in a glasshouse under controlled conditions in a glasshouse (at 24/16° C., day/night; 14 hours light; 65% humidity) and watered twice daily. After 13 days for pre and post-emergence, the test was evaluated ([…] to plant; 0=no damage to plant).
(§2) Setaria faberi (SETFA), Lolium perenne (LOLPE), Alopecurus myosuroides (ALOMY), Echinochloa crus-galli (ECHCG) and Avena fatua (AVEFA).

Test [2] concerns Alopecurus myosuroides (ALOMY). Description: Pre-emergence herbicidal glasshouse test, Alopecurus myosuroides. To be noted: rate 250 g/ha, evaluated after 13 days, scale 100 = total damage to plant, 0 = no damage; for pest or weed control at 250 g/ha: Alopecurus myosuroides, 312 h. The method in brief: (§3)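 Visual damage scores (0 = undamaged, top = plant totally killed) were taken 13 days after spraying. Treatment was given one day after sowing or at day 8 of cultivation, under 24/16° C. glasshouse conditions.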

Test [3] deals with Echinochloa crus-galli (ECHCG). Description: Pre-emergence herbicidal glasshouse test, Echinochloa crus-galli. As to conditions: rate 250 g/ha, evaluated after 13 days, scale 100 = total damage to plant, 0 = no damage; for pest or weed control at 250 g/ha: Echinochloa crus-galli, 312 h. The gist of the method:
as §3

Test [4] has as its system Avena fatua (AVEFA). Description: Pre-emergence herbicidal glasshouse test, Avena fatua. To be noted: rate 250 g/ha, evaluated after 13 days, scale 100 = total damage to plant, 0 = no damage; for pest or weed control at 250 g/ha: Avena fatua, 312 h. The method in brief:
as §3

Test [5] relates to Setaria faberi (SETFA). As to the kind of experiment: Post-emergence herbicidal glasshouse test, Setaria faberi. To be noted: rate 250 g/ha, evaluated after 13 days, scale 100 = total damage to plant, 0 = no damage; for pest or weed control at 250 g/ha: Setaria faberi, 312 h. The procedure:
as §1, §2

Test [6] relates to Alopecurus myosuroides (ALOMY). As to the kind of experiment: Post-emergence herbicidal glasshouse test, Alopecurus myosuroides. To be noted: rate 250 g/ha, evaluated after 13 days, scale 100 = total damage to plant, 0 = no damage; for pest or weed control at 250 g/ha: Alopecurus myosuroides, 312 h. The method in brief:
as §3

Test [7] concerns Echinochloa crus-galli (ECHCG). As to the kind of experiment: Post-emergence herbicidal glasshouse test, Echinochloa crus-galli. As to conditions: rate 250 g/ha, evaluated after 13 days, scale 100 = total damage to plant, 0 = no damage; for pest or weed control at 250 g/ha: Echinochloa crus-galli, 312 h. The gist of the method: as §3
For test [8], the system named is Avena fatua (AVEFA). As to the kind of experiment: Post-emergence herbicidal glasshouse test, Avena fatua. To be noted: rate 250 g/ha, evaluated after 13 days, scale 100 = total damage to plant, 0 = no damage; for pest or weed control at 250 g/ha: Avena fatua, 312 h. The gist of the method:
as §3

As to `CCc1cc(-c2ccc(Cl)cc2)cc(CC)c1C1=C(O)[C@@]2(C)CC[C@H](O2)C1=O` (racemic) [Compound A-11], the pest or weed control at 250 g/ha turned out to be 100% in test [1]; 80% in test [2]; 100% in test [3]; 100% in test [4]; 100% in test [5]; 100% in test [6]. The pest or weed control at 250 g/ha in test [7] and in test [8] was 100% throughout.
With `CCc1cc(-c2ccc(Cl)c(Cl)c2)ccc1C1=C(O)[C@@]2(C)CC[C@H](O2)C1=O` [Compound A-17], the pest or weed control at 250 g/ha in test [1] was 100%; in test [2], 30%; in test [3], 100%; in test [4], 80%; in test [5], 100%; in test [6], 100%. Further, the pest or weed control at 250 g/ha in test [7] and in test [8] was 100% each time.
Turning to `CCc1cc(-c2ccc(F)cc2)ccc1C1=C(O)[C@@]2(C)CC[C@H](O2)C1=O` [Compound A-18], the pest or weed control at 250 g/ha amounted to 100% in test [1]; 90% in test [2]; 100% in test [3]; 70% in test [4]; 100% in test [5]; 100% in test [6]. For the same compound, the pest or weed control at 250 g/ha in test [7] came out at 100%; in test [8], 90%.
Turning to `CCc1cc(-c2c(F)cc(Cl)cc2F)ccc1C1=C(O)[C@@]2(C)CC[C@H](O2)C1=O` (racemic) [Compound A-27], the pest or weed control at 250 g/ha in test [1] was determined as 30%; in test [2] it was 20%; in test [3] it was 40%; in test [4] it was 0%; in test [5] it was 100%; in test [6] it was 90%. Further, the pest or weed control at 250 g/ha in test [7] stood at 100%; in test [8], 70%.
As for `CCc1cc(-c2ccc(Cl)c(F)c2Cl)ccc1C1=C(O)[C@@]2(C)CC[C@H](O2)C1=O` (racemic) [Compound A-29], the pest or weed control at 250 g/ha was 50% in test [1]; 30% in test [2]; 40% in test [3]; 50% in test [4]; 100% in test [5]; 90% in test [6]. Further, the results for the pest or weed control at 250 g/ha in test [7] and in test [8] were 100% and 60%, respectively.
For `Cc1cc(-c2ccccc2)cc(C)c1C1=C(O)[C@@]2(C)C=C[C@H](O2)C1=O` [Compound A-3], the “damage to plant SETFA, pre-emergence activity” value in test [1] amounted to 90. Besides, the “damage to plant ALOMY, pre-emergence activity” value in test [2] came to 0. For the same compound, the “damage to plant ECHCG, pre-emergence activity” value in test [3] amounted to 70. For the same compound, the “damage to plant AVEFA, pre-emergence activity” value in test [4] was 20. Besides, in test [5], the “damage to plant SETFA, post-emergence activity” value came out at 100. Further, in test [6], the “damage to plant ALOMY, post-emergence activity” value is recorded as 70. For the same compound, the “damage to plant ECHCG, post-emergence activity” value in test [7] is listed as 100. Besides, the “damage to plant AVEFA, post-emergence activity” value in test [8] turned out to be 0.
Regarding `CCc1cc(-c2ccc(Cl)c(C(F)(F)F)c2)ccc1C1=C(O)[C@@]2(C)CC[C@H](O2)C1=O` [Compound A-22], the pest or weed control at 250 g/ha in test [1] came out at 50%; in test [2], 0%; in test [3], 40%; in test [4], 50%; in test [5], 100%; in test [6], 100%. The results for the pest or weed control at 250 g/ha in test [7] and in test [8] were 90% and 70%, respectively.
On to `CCc1cc(-c2ccc(Cl)c(C)c2)ccc1C1=C(O)[C@@]2(C)CC[C@H](O2)C1=O` [Compound A-19], for which the pest or weed control at 250 g/ha in test [1] was 0%; in test [2], 0%; in test [3], 80%; in test [4] it was 30%; in test [5], 80%; in test [6] it was 90%. For the same compound, the pest or weed control at 250 g/ha in test [7] is 90%; in test [8] it was 60%.
As for `Cc1cc(-c2ccc(Cl)cc2)ccc1C1=C(O)[C@@]2(C)CC[C@H](O2)C1=O` (racemic) [Compound A-10], the pest or weed control at 250 g/ha in test [1] was 0%; in test [2], 0%; in test [3] it was 30%; in test [4], 0%; in test [5], 100%; in test [6] it was 90%. Also, the pest or weed control at 250 g/ha worked out at 100% in test [7] and 50% in test [8].
Consider `CCc1cc(-c2ccc(Cl)nc2)ccc1C1=C(O)[C@@]2(C)CC[C@H](O2)C1=O` [Compound A-25], for which the pest or weed control at 250 g/ha in test [1] came out at 90%; in test [2] it was 30%; in test [3], 50%; in test [4], 20%; in test [5] it was 100%; in test [6], 90%. The values for the pest or weed control at 250 g/ha in test [7] and in test [8] were 100% and 60%, respectively.
On to `CCc1cc(-c2ccc(Cl)c(OC)c2)ccc1C1=C(O)[C@@]2(C)CC[C@H](O2)C1=O` [Compound A-20], for which the pest or weed control at 250 g/ha amounted to 80% in test [1]; 70% in test [2]; 70% in test [3]; 40% in test [4]; 90% in test [5]; 90% in test [6]. Moreover, the values for the pest or weed control at 250 g/ha in test [7] and in test [8] were 100% and 70%, respectively.
In the case of `CCc1cc(-c2ccc(Cl)cc2)ccc1C1=C(O)[C@@]2(C)CC[C@H](O2)C1=O` (racemic) [Compound A-5], the pest or weed control at 250 g/ha in test [1] is 70%; in test [2] it was 30%; in test [3], 40%; in test [4], 0%; in test [5], 100%; in test [6], 90%. Also, the pest or weed control at 250 g/ha in test [7] is 100%; in test [8] it was 70%.
On to `CCc1cc(-c2ccc(Cl)c(F)c2F)ccc1C1=C(O)[C@@]2(C)CC[C@H](O2)C1=O` (racemic) [Compound A-30], for which the pest or weed control at 250 g/ha in test [1] was 0%; in test [2], 0%; in test [3] it was 0%; in test [4], 0%; in test [5], 90%; in test [6] it was 30%. For the same compound, the pest or weed control at 250 g/ha in test [7] stood at 50%; in test [8], 0%.
Turning to `CCOC[C@]12CC[C@H](O1)C(=O)C(c1ccc(-c3ccc(Cl)cc3)cc1CC)=C2O` [Compound A-33], the pest or weed control at 250 g/ha is 30% in test [1]; 20% in test [2]; 60% in test [3]; 40% in test [4]; 100% in test [5]; 90% in test [6]. Further, the pest or weed control at 250 g/ha in test [7] turned out to be 100%; in test [8], 80%.
As to `CCc1cc(-c2ccc(C)cc2)cc(CC)c1C1=C(O)[C@@]2(C)CC[C@H](O2)C1=O` (racemic) [Compound A-12], the pest or weed control at 250 g/ha worked out at 80% in test [1]; 30% in test [2]; 70% in test [3]; 20% in test [4]; 100% in test [5]; 70% in test [6]. Further, the figures for the pest or weed control at 250 g/ha in test [7] and in test [8] were 100% and 0%, respectively.
Consider `CCc1cc(-c2cc(Cl)cc(Cl)c2)ccc1C1=C(O)[C@@]2(C)CC[C@H](O2)C1=O` [Compound A-15], for which the pest or weed control at 250 g/ha was found to be 40% in test [1]; 0% in test [2]; 30% in test [3]; 40% in test [4]; 100% in test [5]; 100% in test [6]. The pest or weed control at 250 g/ha in test [7] worked out at 100%; in test [8], 80%.

The pest or weed control is the degree to which the test organism was suppressed or injured, in per cent. A higher pest or weed control goes with strong suppression.

The values above are taken from patent US8895761B2, “4-phenylpyrane-3,5-diones, 4-phenylthiopyrane-3,5-diones and 2-phenylcyclohexane-1,3,5-triones as herbicides” (Syngenta Limited, priority 2007, dated 2014).
